# Results from patent US7834187B2, “Crystalline variable hydrate of (S)-6-(4-(2-((3-9H-carbazol-4-yloxy)-2-hydroxypropyl)amino)-2-methylpropyl)phenoxy)-3-pyridinecarbox amide hemisuccinate salt” (Eli Lilly and Company, priority 2004, dated 2010).
# Experiments:
# B3 receptor = B3 receptor (Homo sapiens, UniProt P13945); settings: single dose; as described in WO 98/09625; cited from earlier work
# [1] = Moisture sorption analysis; format: physicochemical; settings: between 10 and 80% relative humidity
# Text: Various methods, including moisture sorption analysis, Karl Fischer analysis, X-ray powder diffraction (XRD) and ^13C solid-state nuclear magnetic resonance (SSNMR), are used to characterize SAM Classic Hydrate.
# The SAM Classic Hydrate crystal structure retains approximately 6-11% water between 10 and 80% relative humidity. The hydrate rapidly equilibrates with the atmosphere, such that the water content observed by analytical techniques is a function of the relative humidity at which the sample was equilabrated.
# Chain of B3 receptor (P13945 whole entry): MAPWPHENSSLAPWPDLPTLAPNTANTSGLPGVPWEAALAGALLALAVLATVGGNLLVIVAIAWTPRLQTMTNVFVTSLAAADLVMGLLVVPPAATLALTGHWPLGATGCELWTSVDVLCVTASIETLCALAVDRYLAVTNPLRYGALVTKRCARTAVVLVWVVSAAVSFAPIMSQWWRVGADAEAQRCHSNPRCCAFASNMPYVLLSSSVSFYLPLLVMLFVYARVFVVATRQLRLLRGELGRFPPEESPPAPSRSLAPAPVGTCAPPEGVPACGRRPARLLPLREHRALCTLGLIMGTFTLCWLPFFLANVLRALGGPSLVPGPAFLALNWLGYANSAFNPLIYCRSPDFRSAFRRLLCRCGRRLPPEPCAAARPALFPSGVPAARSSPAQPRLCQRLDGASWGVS
Compound,% of isoproterenol's response (B3 receptor),water retained by the crystal structure (moisture sorption profile) [1]
CC(C)(Cc1ccc(Oc2ccc(C(N)=O)cn2)cc1)NC[C@H](O)COc1cccc2[nH]c3ccccc3c12 [SAM Classic free base],at least 30%,
"CC(C)(Cc1ccc(Oc2ccc(C(N)=O)cn2)cc1)NC[C@H](O)COc1cccc2[nH]c3ccccc3c12.CC(C)(Cc1ccc(Oc2ccc(C(N)=O)cn2)cc1)NC[C@H](O)COc1cccc2[nH]c3ccccc3c12.O=C(O)CCC(=O)O [SAM Classic Hydrate, (S)-(3-pyridinecarboxamide,6-[4-[2-[[3-(9H-carbazol-4-yloxy)-2-hydroxypropyl]amino]-2-methylpropyl]phenoxy])-hemi-succinate salt]",,6-11%
